Test results taken from ChEMBL document CHEMBL6127064, “Discovery of GNE-6893, a Potent, Selective, Orally Bioavailable Small Molecule Inhibitor of HPK1” (ACS Med Chem Lett, 2024).

Columns and labels:
[1] = Clearance in Sprague-Dawley rat at 0.5 mg/kg, iv measured for 8 hrs by LC-MS/MS analysis; assay type: ADME, organism-based; details: in vivo
[2] = Inhibition of human full length HPK1-T165E/S171E mutant expressed in baculovirus expression system assessed as inhibition of SLP76 phosphorylation using biotinylated SLP76 as substrate preincubated for 30 mins followed by incubation with substrate in presence of ATP and measured for 60 mins by HTRF assay
[3] = biological target: T1, Mitogen-activated protein kinase kinase kinase kinase 1 (Homo sapiens, UniProt Q92918); experiment: Inhibition of HPK1 in human Jurkat cells assessed as inhibition of anti-CD3/anti-CD28-induced SLP76 phosporylation at Ser376 residue incubated for 30 mins by ELISA; assay type: cell-based
Target sequence in this assay (Q92918 whole entry): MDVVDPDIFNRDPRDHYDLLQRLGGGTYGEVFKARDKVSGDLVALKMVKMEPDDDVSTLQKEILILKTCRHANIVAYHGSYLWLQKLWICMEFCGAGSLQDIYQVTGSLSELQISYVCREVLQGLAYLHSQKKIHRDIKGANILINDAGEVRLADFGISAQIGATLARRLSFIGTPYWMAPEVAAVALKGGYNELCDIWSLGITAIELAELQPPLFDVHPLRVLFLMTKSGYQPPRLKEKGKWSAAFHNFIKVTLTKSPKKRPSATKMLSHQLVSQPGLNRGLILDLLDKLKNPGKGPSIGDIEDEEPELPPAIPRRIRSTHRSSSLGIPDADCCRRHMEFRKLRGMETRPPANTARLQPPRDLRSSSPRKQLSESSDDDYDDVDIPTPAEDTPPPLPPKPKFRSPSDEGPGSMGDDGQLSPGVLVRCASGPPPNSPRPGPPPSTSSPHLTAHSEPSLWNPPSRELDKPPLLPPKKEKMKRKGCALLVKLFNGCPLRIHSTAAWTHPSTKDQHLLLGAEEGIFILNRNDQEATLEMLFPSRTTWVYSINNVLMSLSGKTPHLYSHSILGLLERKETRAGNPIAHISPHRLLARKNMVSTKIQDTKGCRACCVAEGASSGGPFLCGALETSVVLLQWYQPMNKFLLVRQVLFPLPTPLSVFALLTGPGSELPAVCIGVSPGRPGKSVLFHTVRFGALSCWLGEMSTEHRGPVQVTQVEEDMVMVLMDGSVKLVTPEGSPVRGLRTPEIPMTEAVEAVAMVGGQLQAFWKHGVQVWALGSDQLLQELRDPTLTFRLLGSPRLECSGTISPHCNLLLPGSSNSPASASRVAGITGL

[4] = biological target: T1, Mitogen-activated protein kinase kinase kinase kinase 1; experiment: Inhibition of HPK1 in primary human Pan T cells assessed as increase in IL-2 secretion pretreated for 30 mins followed by incubation with anti-CD3/anti-CD28 and measured after 4 hrs by MSD assay; assay type: cell-based, T cell
Target sequence in this assay (Q92918 whole entry): as above

[5] = Apparent permeability of the compound across apical to basolateral side in dog MDCK1 cells at 10 uM by LC-MS/MS analysis; assay type: ADME, cell-based, Canis lupus familiaris; details: MDCK
[6] = Volume of distribution at steady state in Sprague-Dawley rat at 0.5 mg/kg, iv measured for 8 hrs by LC-MS/MS analysis; assay type: ADME, organism-based; details: in vivo, read-out: Vdss
[7] = Half life in Sprague-Dawley rat at 0.5 mg/kg, iv measured for 8 hrs by LC-MS/MS analysis; assay type: ADME, organism-based; details: in vivo
[8] = Volume of distribution at steady state in C57BL/6 mouse at 25 mg/kg, po or 1 mg/kg, iv measured for 24 hrs by LC-MS/MS analysis; assay type: ADME, organism-based; details: in vivo
[9] = Half life in C57BL/6 mouse at 25 mg/kg, po or 1 mg/kg, iv measured for 24 hrs by LC-MS/MS analysis; assay type: ADME, organism-based; details: in vivo
[10] = Oral bioavailability in C57BL/6 mouse at 25 mg/kg measured for 24 hrs by LC-MS/MS analysis; assay type: ADME, organism-based; details: C57BL/6, mouse, in vivo
[11] = Oral bioavailability in Sprague-Dawley rat; assay type: ADME, organism-based; details: in vivo
[12] = Protein binding in mouse plasma; assay type: ADME, cell-free; details: read-out: PPB (converted)
[13] = Protein binding in rat plasma; assay type: ADME, cell-free; details: read-out: PPB (converted)
[14] = Protein binding in dog plasma; assay type: ADME, cell-free, Canis lupus familiaris; details: read-out: PPB (converted)
[15] = Protein binding in cynomolgus monkey plasma; assay type: ADME, cell-free, Macaca fascicularis; details: read-out: PPB (converted)
[16] = Volume of distribution at steady state in Beagle dog at 0.5 mg/kg, po or 0.5 mg/kg, iv measured for 24 hrs by LC/MS/MS analysis; assay type: ADME, organism-based, Canis lupus familiaris; details: in vivo
[17] = Half life in Beagle dog at 0.5 mg/kg, po or 0.5 mg/kg, iv measured for 24 hrs by LC/MS/MS analysis; assay type: ADME, organism-based, Canis lupus familiaris; details: in vivo
[18] = Oral bioavailability in Beagle dog at 0.5 mg/kg measured for 24 hrs by LC/MS/MS analysis; assay type: ADME, organism-based, Canis lupus familiaris; details: in vivo
[19] = Volume of distribution at steady state in cynomolgus monkey at 0.5 mg/kg, po or 0.5 mg/kg, iv measured for 24 hrs by LC/MS/MS analysis; assay type: ADME, organism-based, Macaca fascicularis; details: in vivo
[20] = Half life in cynomolgus monkey at 0.5 mg/kg, po or 0.5 mg/kg, iv by measured for 24 hrs LC/MS/MS analysis; assay type: ADME, organism-based, Macaca fascicularis; details: in vivo
[21] = Oral bioavailability in cynomolgus monkey at 0.5 mg/kg measured for 24 hrs by LC/MS/MS analysis; assay type: ADME, organism-based, Macaca fascicularis; details: in vivo
[22] = biological target: Aurora kinase B (Homo sapiens, UniProt Q96GD4); experiment: Inhibition of Aurora kinase B (unknown origin)
Sequence of Aurora kinase B (Q96GD4 whole entry): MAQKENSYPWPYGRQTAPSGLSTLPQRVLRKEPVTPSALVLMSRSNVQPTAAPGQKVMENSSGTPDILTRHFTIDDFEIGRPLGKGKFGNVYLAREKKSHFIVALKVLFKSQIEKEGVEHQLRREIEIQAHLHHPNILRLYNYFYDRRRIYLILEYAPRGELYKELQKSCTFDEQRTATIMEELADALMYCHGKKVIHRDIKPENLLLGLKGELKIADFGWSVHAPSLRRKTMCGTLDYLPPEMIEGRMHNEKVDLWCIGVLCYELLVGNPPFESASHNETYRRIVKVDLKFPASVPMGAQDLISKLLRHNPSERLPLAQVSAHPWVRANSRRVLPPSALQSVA

[23] = biological target: Leucine-rich repeat serine/threonine-protein kinase 2 (Homo sapiens, UniProt Q5S007); experiment: Inhibition of LRRK2 (unknown origin)
[24] = biological target: T2, Mitogen-activated protein kinase kinase kinase kinase 2 (Homo sapiens, UniProt Q12851); experiment: Inhibition of GCK (unknown origin)
T2 sequence (Q12851 whole entry): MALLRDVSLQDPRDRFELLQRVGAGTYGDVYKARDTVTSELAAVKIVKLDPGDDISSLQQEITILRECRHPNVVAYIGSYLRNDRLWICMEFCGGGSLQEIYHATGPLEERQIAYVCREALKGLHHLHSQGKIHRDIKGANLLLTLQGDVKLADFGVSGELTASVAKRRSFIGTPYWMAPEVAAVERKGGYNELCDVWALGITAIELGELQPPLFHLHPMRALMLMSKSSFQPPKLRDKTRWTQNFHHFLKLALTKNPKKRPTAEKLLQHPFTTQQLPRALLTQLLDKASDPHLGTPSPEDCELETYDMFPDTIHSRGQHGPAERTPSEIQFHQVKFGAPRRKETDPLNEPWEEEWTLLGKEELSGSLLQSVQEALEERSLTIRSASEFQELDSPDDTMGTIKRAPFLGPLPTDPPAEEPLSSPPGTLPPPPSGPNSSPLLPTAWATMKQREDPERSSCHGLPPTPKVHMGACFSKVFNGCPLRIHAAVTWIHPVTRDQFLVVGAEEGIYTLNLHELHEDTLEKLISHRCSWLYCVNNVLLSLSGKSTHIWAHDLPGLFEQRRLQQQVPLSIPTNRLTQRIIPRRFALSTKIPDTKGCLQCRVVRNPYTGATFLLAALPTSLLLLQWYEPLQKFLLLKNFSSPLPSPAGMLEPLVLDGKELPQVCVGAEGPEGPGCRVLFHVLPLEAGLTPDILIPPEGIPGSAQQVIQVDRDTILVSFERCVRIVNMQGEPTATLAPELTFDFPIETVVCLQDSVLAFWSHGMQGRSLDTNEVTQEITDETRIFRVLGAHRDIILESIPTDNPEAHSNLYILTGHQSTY

[25] = Selectivity ratio of IC50 for inhibition of GCK (unknown origin) to Ki for inhibition of human full length HPK1-T165E/S171E mutant expressed in baculovirus expression system
[26] = biological target: T3, Mitogen-activated protein kinase kinase kinase kinase 3 (Homo sapiens, UniProt Q8IVH8); experiment: Inhibition of GLK (unknown origin)
T3 sequence (Q8IVH8 whole entry): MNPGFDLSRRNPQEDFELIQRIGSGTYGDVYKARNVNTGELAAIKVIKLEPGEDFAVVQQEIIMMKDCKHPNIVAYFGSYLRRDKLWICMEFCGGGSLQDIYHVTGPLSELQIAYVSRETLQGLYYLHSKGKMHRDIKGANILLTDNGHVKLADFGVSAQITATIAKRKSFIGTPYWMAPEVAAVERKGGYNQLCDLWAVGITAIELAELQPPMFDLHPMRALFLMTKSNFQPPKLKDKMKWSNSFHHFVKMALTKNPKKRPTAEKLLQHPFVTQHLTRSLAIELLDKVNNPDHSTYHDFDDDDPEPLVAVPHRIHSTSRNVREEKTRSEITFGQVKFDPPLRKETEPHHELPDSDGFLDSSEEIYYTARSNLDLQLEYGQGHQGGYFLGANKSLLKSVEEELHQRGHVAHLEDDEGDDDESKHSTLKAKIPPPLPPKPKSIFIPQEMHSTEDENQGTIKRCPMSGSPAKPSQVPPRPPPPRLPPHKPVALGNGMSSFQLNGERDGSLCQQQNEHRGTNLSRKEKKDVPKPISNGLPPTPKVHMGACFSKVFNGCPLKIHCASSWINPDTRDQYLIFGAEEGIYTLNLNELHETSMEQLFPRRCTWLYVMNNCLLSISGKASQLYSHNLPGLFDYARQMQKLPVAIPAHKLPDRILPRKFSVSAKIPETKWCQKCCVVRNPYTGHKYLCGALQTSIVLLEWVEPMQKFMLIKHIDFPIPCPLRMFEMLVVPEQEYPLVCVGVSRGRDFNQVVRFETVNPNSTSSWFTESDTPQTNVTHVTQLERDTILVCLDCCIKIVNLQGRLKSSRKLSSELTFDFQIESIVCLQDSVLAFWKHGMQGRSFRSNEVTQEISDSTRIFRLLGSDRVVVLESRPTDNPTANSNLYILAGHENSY

[27] = Selectivity ratio of IC50 for inhibition of GLK (unknown origin) to Ki for inhibition of human full length HPK1-T165E/S171E mutant expressed in baculovirus expression system
[28] = biological target: Mitogen-activated protein kinase kinase kinase kinase 4 (Homo sapiens, UniProt O95819); experiment: Inhibition of MAP4K4 (unknown origin)
[29] = Selectivity ratio of IC50 for inhibition of MAP4K4 (unknown origin) to Ki for inhibition of human full length HPK1-T165E/S171E mutant expressed in baculovirus expression system
[30] = biological target: Misshapen-like kinase 1 (Homo sapiens, UniProt Q8N4C8); experiment: Inhibition of MINK1 (unknown origin)
[31] = Selectivity ratio of IC50 for inhibition of MINK1 (unknown origin) to Ki for inhibition of human full length HPK1-T165E/S171E mutant expressed in baculovirus expression system
[32] = biological target: TRAF2 and NCK-interacting protein kinase (Homo sapiens, UniProt Q9UKE5); experiment: Inhibition of TNIK (unknown origin)
[33] = Selectivity ratio of IC50 for inhibition of TNIK (unknown origin) to Ki for inhibition of human full length HPK1-T165E/S171E mutant expressed in baculovirus expression system
[34] = Inhibition of KHS1 (unknown origin); parameters: species or system Homo sapiens
[35] = Selectivity ratio of IC50 for inhibition of KHS1 (unknown origin) to Ki for inhibition of human full length HPK1-T165E/S171E mutant expressed in baculovirus expression system
[36] = biological target: Sodium-dependent serotonin transporter (Homo sapiens) (UniProt P31645); experiment: Inhibition of 5-HTT (unknown origin) at 10 uM
Sequence of Sodium-dependent serotonin transporter (Homo sapiens) (P31645 whole entry, looked up): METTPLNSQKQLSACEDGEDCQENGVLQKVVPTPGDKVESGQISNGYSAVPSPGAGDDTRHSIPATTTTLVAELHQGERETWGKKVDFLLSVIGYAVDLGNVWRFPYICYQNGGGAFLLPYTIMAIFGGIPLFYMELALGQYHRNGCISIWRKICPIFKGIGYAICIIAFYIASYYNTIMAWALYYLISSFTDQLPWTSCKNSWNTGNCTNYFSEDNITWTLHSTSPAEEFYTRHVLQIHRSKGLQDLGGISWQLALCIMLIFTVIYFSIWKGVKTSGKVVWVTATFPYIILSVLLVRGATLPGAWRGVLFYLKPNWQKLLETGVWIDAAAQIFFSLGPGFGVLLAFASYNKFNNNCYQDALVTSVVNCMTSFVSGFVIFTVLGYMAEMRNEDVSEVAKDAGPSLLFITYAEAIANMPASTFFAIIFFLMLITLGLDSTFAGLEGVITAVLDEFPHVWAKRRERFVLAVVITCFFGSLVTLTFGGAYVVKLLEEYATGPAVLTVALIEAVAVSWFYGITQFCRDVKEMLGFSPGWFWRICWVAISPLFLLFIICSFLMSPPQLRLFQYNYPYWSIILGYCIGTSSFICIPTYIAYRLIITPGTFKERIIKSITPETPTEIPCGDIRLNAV

[37] = organism: Homo sapiens; experiment: Inhibition of benzodiazepine receptor (unknown origin) at 10 uM
[38] = biological target: T4, D(4) dopamine receptor (Homo sapiens) (UniProt P21917); experiment: Inhibition of dopamine D4 receptor (unknown origin) at 10 uM
T4 sequence (whole entry): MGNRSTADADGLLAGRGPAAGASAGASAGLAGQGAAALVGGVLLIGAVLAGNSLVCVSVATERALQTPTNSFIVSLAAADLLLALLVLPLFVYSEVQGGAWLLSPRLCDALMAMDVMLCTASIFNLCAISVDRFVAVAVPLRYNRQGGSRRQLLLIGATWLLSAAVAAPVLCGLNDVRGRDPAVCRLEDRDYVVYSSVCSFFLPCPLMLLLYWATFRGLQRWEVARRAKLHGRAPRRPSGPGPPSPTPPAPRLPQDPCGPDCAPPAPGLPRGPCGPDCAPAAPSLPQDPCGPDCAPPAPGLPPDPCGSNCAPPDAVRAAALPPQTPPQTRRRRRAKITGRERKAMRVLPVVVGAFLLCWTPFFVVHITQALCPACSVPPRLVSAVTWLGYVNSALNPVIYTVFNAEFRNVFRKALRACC

[39] = biological target: Voltage-gated inwardly rectifying potassium channel KCNH2 (Homo sapiens, UniProt Q12809); experiment: Inhibition of hERG; assay type: toxicity
[40] = biological target: Sodium channel protein type 5 subunit alpha (Homo sapiens, UniProt Q14524); experiment: Inhibition of Nav1.5 (unknown origin)
[41] = biological target: Voltage-dependent L-type calcium channel subunit alpha-1C (Homo sapiens, UniProt Q13936); experiment: Inhibition of Cav1.2 (unknown origin)
Sequence of Voltage-dependent L-type calcium channel subunit alpha-1C (Q13936 whole entry): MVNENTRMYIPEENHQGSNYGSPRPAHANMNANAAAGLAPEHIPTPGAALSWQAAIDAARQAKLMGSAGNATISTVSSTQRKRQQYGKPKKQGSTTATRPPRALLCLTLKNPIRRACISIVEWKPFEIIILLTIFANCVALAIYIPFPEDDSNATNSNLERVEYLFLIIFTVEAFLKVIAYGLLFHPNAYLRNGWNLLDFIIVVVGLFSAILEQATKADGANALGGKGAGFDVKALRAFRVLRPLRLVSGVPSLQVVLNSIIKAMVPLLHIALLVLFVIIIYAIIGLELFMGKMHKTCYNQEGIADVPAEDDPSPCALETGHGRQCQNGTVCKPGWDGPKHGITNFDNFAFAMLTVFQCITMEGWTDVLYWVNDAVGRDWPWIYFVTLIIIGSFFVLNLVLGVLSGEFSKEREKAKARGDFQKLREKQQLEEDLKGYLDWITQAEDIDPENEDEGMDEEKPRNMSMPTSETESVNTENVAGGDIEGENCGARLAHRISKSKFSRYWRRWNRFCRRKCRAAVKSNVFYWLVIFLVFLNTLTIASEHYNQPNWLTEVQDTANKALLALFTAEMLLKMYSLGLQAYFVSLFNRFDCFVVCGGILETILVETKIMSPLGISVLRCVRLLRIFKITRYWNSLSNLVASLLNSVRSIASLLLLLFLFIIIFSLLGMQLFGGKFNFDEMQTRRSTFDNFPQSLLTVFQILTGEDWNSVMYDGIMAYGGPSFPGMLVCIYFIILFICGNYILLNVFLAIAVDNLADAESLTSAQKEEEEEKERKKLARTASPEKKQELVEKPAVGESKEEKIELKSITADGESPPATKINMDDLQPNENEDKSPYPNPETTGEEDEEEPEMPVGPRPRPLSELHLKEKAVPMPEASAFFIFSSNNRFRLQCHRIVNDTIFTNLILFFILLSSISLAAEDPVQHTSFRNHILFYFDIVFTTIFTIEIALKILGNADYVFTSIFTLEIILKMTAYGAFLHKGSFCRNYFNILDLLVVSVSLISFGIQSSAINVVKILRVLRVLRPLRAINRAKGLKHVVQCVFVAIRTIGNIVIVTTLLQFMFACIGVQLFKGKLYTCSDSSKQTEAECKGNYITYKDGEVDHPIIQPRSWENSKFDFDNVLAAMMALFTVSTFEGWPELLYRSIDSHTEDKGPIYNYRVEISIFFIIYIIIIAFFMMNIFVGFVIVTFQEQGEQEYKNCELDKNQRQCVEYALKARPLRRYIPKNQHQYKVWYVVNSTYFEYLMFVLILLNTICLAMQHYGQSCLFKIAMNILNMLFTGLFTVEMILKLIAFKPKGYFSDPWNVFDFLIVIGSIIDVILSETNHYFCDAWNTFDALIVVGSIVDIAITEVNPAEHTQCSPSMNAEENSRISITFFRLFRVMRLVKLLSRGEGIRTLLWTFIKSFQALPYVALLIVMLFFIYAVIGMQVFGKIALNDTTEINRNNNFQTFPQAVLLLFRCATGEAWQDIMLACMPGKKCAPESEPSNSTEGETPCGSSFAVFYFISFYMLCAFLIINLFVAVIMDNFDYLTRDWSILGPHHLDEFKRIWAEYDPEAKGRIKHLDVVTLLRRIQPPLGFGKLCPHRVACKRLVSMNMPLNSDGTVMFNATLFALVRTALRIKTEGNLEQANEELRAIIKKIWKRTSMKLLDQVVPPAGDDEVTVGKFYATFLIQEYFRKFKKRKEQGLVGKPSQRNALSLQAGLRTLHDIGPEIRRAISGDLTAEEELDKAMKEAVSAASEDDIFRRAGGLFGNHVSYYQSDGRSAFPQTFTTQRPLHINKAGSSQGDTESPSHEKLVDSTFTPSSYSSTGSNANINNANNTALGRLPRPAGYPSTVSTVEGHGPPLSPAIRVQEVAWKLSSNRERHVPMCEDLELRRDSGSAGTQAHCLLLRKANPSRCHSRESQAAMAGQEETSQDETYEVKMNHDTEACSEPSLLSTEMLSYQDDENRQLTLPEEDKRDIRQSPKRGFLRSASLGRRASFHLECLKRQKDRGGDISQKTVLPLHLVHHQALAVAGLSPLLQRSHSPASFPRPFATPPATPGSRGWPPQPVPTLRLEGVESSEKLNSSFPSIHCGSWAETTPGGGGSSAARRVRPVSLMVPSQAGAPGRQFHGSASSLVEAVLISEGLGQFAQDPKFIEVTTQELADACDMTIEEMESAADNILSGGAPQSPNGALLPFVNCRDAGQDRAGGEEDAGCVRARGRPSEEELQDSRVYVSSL

[42] = test system: Hepatocyte; experiment: Cytotoxicity against human primary hepatocytes upto 100 uM; assay type: toxicity, cell-based
[43] = Cytotoxicity against human liver-microtissues upto 100 uM; assay type: toxicity, tissue-based
[44] = biological target: T1, Mitogen-activated protein kinase kinase kinase kinase 1; experiment: Inhibition of HPK1 in primary human Pan T cells assessed as increase in IL-2 secretion pretreated for 30 mins followed by incubation with anti-CD3/anti-CD28 and measured after 4 hrs by MSD assay relative to control; assay type: cell-based; details: T cell, time 4.5 hrs
Target sequence in this assay (Q92918 whole entry, looked up): as the sequence (Q92918 whole entry) above

For `Cc1c(-c2cc3cc(NC(=O)O[C@H]4COC[C@@H]4C)ncc3c(N)c2F)cnc2c1NCCO2`, the clearance [1] was 39 mL/min/kg, the Ki [2] was under 0.019 nM and the IC50 [3] was 44 nM. It also gave an EC50 [4] of 6.4 nM, a Papp A→B at 10 µM [5] of 15 ×10⁻⁶ cm/s and a Vd [6] of 2.2 L/kg. The half-life [7] was 78 min, the Vdss [8] was 1.8 L/kg and the half-life [9] was 102 min. It also gave a bioavailability [10] of 37%, a bioavailability [11] of 30% and a fraction unbound [12] of 0.053. For the same compound, the fraction unbound [13] was 0.094, the fraction unbound [14] was 0.142 and the fraction unbound [15] was 0.116. For the same compound, the Vdss [16] was 2.2 L/kg, the half-life [17] was 150 min and the bioavailability [18] was 46%. For the same compound, the Vdss [19] was 1.9 L/kg, the half-life [20] was 114 min and the bioavailability [21] was 53%. The IC50 [22] was 46 nM, the IC50 [23] was 31 nM and the IC50 [24] was 1.3 nM. The Ratio [25] was over 69, the IC50 [26] was 0.72 nM and the Ratio [27] was over 40. The IC50 [28] was 3.3 nM, the Ratio [29] was over 180 and the IC50 [30] was 3.6 nM. For the same compound, the Ratio [31] was over 200, the IC50 [32] was 2.3 nM and the Ratio [33] was over 120. It also gave an IC50 [34] of 3.1 nM, a Ratio [35] of over 170 and an inhibition [36] of 50%. It also gave an inhibition [37] of 50%, an inhibition [38] of 50% and an IC50 [39] of 28 µM. The IC50 [40] was over 10 µM, the IC50 [41] was over 10 µM and the Activity [42] was “Non-Toxic”. For the same compound, the Activity [43] was “Non-Toxic”.
With `Cc1ccncc1-c1cc(N)c2cnc(NC(=O)[C@@H]3C[C@H]3C#N)cc2c1` the Ki [2] was 4.9 nM and the fold change (FC) [44] was 5.
